Measured values reported in article PMC7570844, “Skin Damages—Structure Activity Relationship of Benzimidazole Derivatives Bearing a 5-Membered Ring System” (Molecules, 2020).
Converted amounts (≈) assume the structure as drawn.

Columns and labels:
Microsporum gypseum = test: Antidermatophyte plaque growth inhibition; type: cell-based; settings: Nannizzia gypsea; M. gypseum, 100 µg/mL; '+' has no key; read-out: Percent growth inhibition
Microsporum canis = test: Antidermatophyte plaque growth inhibition; type: cell-based; settings: M. canis, 100 µg/mL, '+' has no key, read-out: Percent growth inhibition
[1] = test system: Trichophyton mentagrophytes; test: Antidermatophyte plaque growth inhibition; type: cell-based; settings: T. mentagrophytes, 100 µg/mL, '+' has no key, read-out: Percent growth inhibition
Trichophyton tonsurans = test: Antidermatophyte plaque growth inhibition; type: cell-based; settings: T. tonsurans, 100 µg/mL, '+' has no key, read-out: Percent growth inhibition
Epidermophyton floccosum = test: Antidermatophyte plaque growth inhibition; type: cell-based; settings: E. floccosum, 100 µg/mL, '+' has no key, read-out: Percent growth inhibition
[2] = test system: M. gypseum, M. canis, T. mentagrophytes, T. tonsurans and E. floccosum; test: Antidermatophyte activity, all five dermatophytes taken together; type: cell-based; settings: 100 µg/mL, all five dermatophytes; read-out: Percentage of growth inhibition over the five dermatophytes
[3] = test system: herpes simplex virus-1 (KOS); test: Antiviral activity in HEL cell cultures (CPE, MTS); type: cell-based; settings: Human alphaherpesvirus 1, HEL cells
[4] = test system: herpes simplex virus-2 (G); test: Antiviral activity in HEL cell cultures (CPE, MTS); type: cell-based; settings: Human alphaherpesvirus 2; Herpes simplex virus-2, HEL cells
[5] = test system: herpes simplex virus-1 TK-KOS ACVr; test: microbe, parasite or virus in culture; type: cell-based; settings: Human alphaherpesvirus 1, HEL, read-out: Antiviral EC50
vaccinia virus = test: microbe, parasite or virus in culture; type: cell-based; settings: Orthopoxvirus vaccinia, HEL, read-out: Antiviral EC50
Adeno virus-2 = test: Antiviral activity in HEL cell cultures (CPE, MTS); type: cell-based; settings: Adeno virus-2, HEL cells
Human Coronavirus (229E) = test: microbe, parasite or virus in culture; type: cell-based; settings: HEL, read-out: Antiviral EC50
[6] = test system: vesicular stomatitis virus; test: microbe, parasite or virus in culture; type: cell-based; settings: HeLa, read-out: Antiviral EC50
Coxsackie virus B4 = test: Antiviral activity in HeLa cell cultures (CPE, MTS); type: cell-based; settings: Enterovirus B; Coxsackie virus B4, HeLa cells
[7] = test system: Respiratory syncytial virus; test: microbe, parasite or virus in culture; type: cell-based; settings: human respiratory syncytial virus, HeLa cells, read-out: Antiviral EC50
[8] = test system: human embryonic lung (HEL) cell cultures
HeLa cell cultures = settings: human
[9] = DPPH radical scavenging test; settings: mean ± SEM; for DPPH (% Inhibition): tested at 1 mg/mL
[10] = test system: human T-lymphocyte cells (CEM); test: Cell proliferation inhibition
[11] = test system: human cervical carcinoma cells (HeLa); test: Cell proliferation inhibition
[12] = test system: human pancreatic carcinoma cells (Mia Paca-2); test: Cell proliferation inhibition
[13] = test system: human melanoma cells (SK-Mel 5); test: Cell proliferation inhibition
[14] = Ferric reducing antioxidant power (FRAP) test; settings: mean ± SEM
[15] = test system: Candida albicans (ATCC 10231); test: Anti-Candida albicans broth microdilution MIC; settings: Candida albicans, ATCC10231, 24 h
[16] = test system: HEK293T (Normal Kidney Epithelial Cells); test: Cell proliferation inhibition, non-cancer control cells; settings: Homo sapiens, HEK-293T
[17] = UV filtering parameters of compounds in solution (MeOH, 290-400 nm)

Row | SMILES | inhibition at 100 µg/mL (Microsporum gypseum) | inhibition at 100 µg/mL (Microsporum canis) | inhibition at 100 µg/mL [1] | inhibition at 100 µg/mL (Trichophyton tonsurans) | inhibition at 100 µg/mL (Epidermophyton floccosum) | EC50 [3] | EC50 [4] | EC50 [5] | EC50 (vaccinia virus) | EC50 (Adeno virus-2) | EC50 (Human Coronavirus (229E)) | EC50 [6] | EC50 (Coxsackie virus B4) | EC50 [7] | melting point | Cytotoxic concentration [8] | Cytotoxic concentration (HeLa cell cultures) | IC50 [10] | IC50 [11] | IC50 [12] | also measured
1 | O=S(=O)(O)c1ccc2[nH]c(-c3cccs3)nc2c1 [Compound 9, 2-(thiophen-2-yl)-1H-benzimidazole-5-sulfonic Acid] | 59.8 ± 6.12% | 65.9 ± 3.21% | 57.3 ± 1.09% | 50.8 ± 2.11% | 50 ± 3.26% | > 100 µM | > 100 µM | > 100 µM | > 100 µM | > 100 µM | > 100 µM | > 100 µM | > 100 µM | > 100 µM | > 250 °C | > 100 µM | > 100 µM | 34 ± 2 µM | > 100 µM | 43 ± 14 µM | inhibition at 100 µg/mL [2]: 50 to 79%; DPPH (% Inhibition) [9]: 12.52 ± 0.88%; IC50 [13]: > 100 µM; FRAP [14]: 82.16 ± 0.22 µmolTE/g; MIC [15]: 64 µg/mL (≈ 228 µM); IC50 [16]: > 100 µM; SPF [17]: 4.72±0.17; UVA/UVB [17]: 0.48; UVAPF [17]: 1.43±0.09; λc (critical wavelength) [17]: 339 nm
2 | O=S(=O)(O)c1ccc2[nH]c(-c3ccc[nH]3)nc2c1 [Compound 7, 2-(1H-pyrrol-2-yl)-1H-benzimidazole-5-sulfonic Acid] | 73 ± 3.67% | 72.1 ± 7.51% | 69 ± 1.84% | 56.6 ± 4.04% | 52.5 ± 6.58% | > 100 µM | > 100 µM | > 100 µM | > 100 µM | > 100 µM | > 100 µM | > 100 µM | > 100 µM | > 100 µM | > 250 °C | > 100 µM | > 100 µM | 31 ± 21 µM | > 100 µM | 28 ± 10 µM | inhibition at 100 µg/mL [2]: 50 to 79%; DPPH IC50 [9]: 1093.09 ± 8.65 µg/mL; IC50 [13]: > 100 µM; FRAP [14]: 239.91 ± 1.79 µmolTE/g; MIC [15]: 64 µg/mL (≈ 243 µM); IC50 [16]: 67 ± 47 µM; SPF [17]: 5.43±0.39; UVA/UVB [17]: 0.2; UVAPF [17]: 1.22±0.03; λc (critical wavelength) [17]: 345 nm
3 | O=C(O)c1ccc2[nH]c(-c3cccs3)nc2c1 [Compound 15, 2-(thiophen-2-yl)-1H-benzimidazole-5-carboxylic Acid] | 2.14 ± 0.59% | 20.3 ± 0.54% | < 0% | 4.48 ± 0.9% | 6.45 ± 2.98% | > 100 µM | > 100 µM | > 100 µM | > 100 µM | > 100 µM | > 100 µM | > 100 µM | > 100 µM | > 100 µM | > 250 °C | > 100 µM | > 100 µM | 50 ± 10 µM | > 100 µM | 80 ± 12 µM | DPPH (% Inhibition) [9]: 30.23 ± 1.45%; IC50 [13]: > 100 µM; FRAP [14]: 181.84 ± 2.66 µmolTE/g; MIC [15]: 16 µg/mL (≈ 65.5 µM); IC50 [16]: > 100 µM; SPF [17]: 6.40±0.12; UVA/UVB [17]: 0.43; UVAPF [17]: 1.42±0.11; λc (critical wavelength) [17]: 342 nm
4 | O=C(O)c1ccc2nc(-c3ccco3)[nH]c2c1 [Compound 14, 2-(furan-2-yl)-1H-benzimidazole-5-carboxylic Acid] | < 0% | 18.7 ± 0.59% | < 0% | < 0% | 6.45 ± 1.47% | > 100 µM | > 100 µM | > 100 µM | > 100 µM | > 100 µM | > 100 µM | > 100 µM | > 100 µM | > 100 µM | > 250 °C | > 100 µM | > 100 µM | 75 ± 35 µM | > 100 µM | > 100 µM | DPPH IC50 [9]: 1416.38 ± 21.40 µg/mL; IC50 [13]: > 100 µM; FRAP [14]: 26.67 ± 2.89 µmolTE/g; MIC [15]: 16 µg/mL (≈ 70.1 µM); IC50 [16]: > 100 µM; SPF [17]: 16.66±1.21; UVA/UVB [17]: 0.5; UVAPF [17]: 1.20±0.10; λc (critical wavelength) [17]: 332 nm
